# Reference: patent publication US20260285850A1, “SUBSTITUTED OXAZOLIDINONES AND IMIDAZOLINONES AS HERBICIDES” (FMC CORPORATION, priority 2023, published 2026)
# Assays:
# Format in all cases: in vivo
# [1] = test system: ducksalad (Heteranthera limosa); experiment: Test B flooded paddy test, visual plant response rating 0-100; settings: 250 g ai/ha, Flood, applied to paddy water, evaluated after 13 days
# Procedure, shortened: (§1)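 Each species was raised to two leaves before flooding to a 3 cm depth and dosing the water with compound. Injury was assessed by eye after 13 days under greenhouse conditions.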
# [2] = test system: sedge, umbrella (small-flower umbrella sedge, Cyperus difformis); experiment: as above; settings: 250 g ai/ha, Flood, applied to paddy water, evaluated after 13 days
# Procedure, shortened: as §1
# [3] = test system: barnyardgrass (Echinochloa crusgalli); experiment: as above; settings: 250 g ai/ha, Flood, applied to paddy water, evaluated after 13 days
# Procedure, shortened: as §1
# rice (Oryza sativa) = experiment: as above; settings: 250 g ai/ha, Flood, applied to paddy water, evaluated after 13 days
# Procedure, shortened: as §1
# [4] = test system: wheat (Triticum aestivum); experiment: Test A postemergence application, visual injury rating 0-100; settings: Postemergence, 10 days, 0 is no effect, 100 is complete control
# Procedure, shortened: (§2)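 Grow plants in loam soil blended with sand. Apply formulated compound (non-phytotoxic solvent, surfactant) as a directed soil spray before emergence, or to plants at the one- to two-leaf stage after emergence. Hold in greenhouse 10 days, then rate injury visually versus untreated controls on a 0-100 scale.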
# [5] = test system: ragweed (common ragweed, Ambrosia artemisiifolia); experiment: as above; settings: Postemergence, 10 days, 0 is no effect, 100 is complete control
# Procedure, shortened: as §2
# [6] = test system: green foxtail (Setaria viridis); experiment: as above; settings: Postemergence, 10 days, 0 is no effect, 100 is complete control
# Procedure, shortened: as §2
# [7] = test system: galium (catchweed bedstraw, Galium aparine); experiment: as above; settings: Postemergence, 10 days, 0 is no effect, 100 is complete control
# Procedure, shortened: as §2
# soybean (Glycine max) [8] = experiment: as above; settings: Postemergence, 10 days, 0 is no effect, 100 is complete control
# Procedure, shortened: as §2
# [9] = test system: horseweed (Erigeron canadensis); experiment: as above; settings: Postemergence, 10 days, 0 is no effect, 100 is complete control
# Procedure, shortened: as §2
# [10] = test system: blackgrass (Alopecurus myosuroides); experiment: as above; settings: Postemergence, 10 days, 0 is no effect, 100 is complete control
# Procedure, shortened: as §2
# [11] = test system: barnyardgrass (Echinochloa crus-galli); experiment: as above; settings: Postemergence, 10 days, 0 is no effect, 100 is complete control
# Procedure, shortened: as §2
# kochia (Bassia scoparia) [12] = experiment: as above; settings: Postemergence, 10 days, 0 is no effect, 100 is complete control
# Procedure, shortened: as §2
# [13] = test system: ryegrass, Italian (italian ryegrass, Lolium multiflorum); experiment: as above; settings: Postemergence, 10 days, 0 is no effect, 100 is complete control
# Procedure, shortened: as §2
# [14] = test system: palmer (palmer amaranth, palmer pigweed, Amaranthus palmeri); experiment: as above; settings: Postemergence, 10 days, 0 is no effect, 100 is complete control
# Procedure, shortened: as §2
# corn (Zea mays) [15] = experiment: as above; settings: Postemergence, 10 days, 0 is no effect, 100 is complete control
# Procedure, shortened: as §2
# [16] = test system: oat, wild (wild oat, Avena fatua); experiment: as above; settings: Postemergence, 10 days, 0 is no effect, 100 is complete control
# Procedure, shortened: as §2
# [17] = test system: wheat (Triticum aestivum); experiment: Test A preemergence soil spray, visual injury rating 0-100; settings: 10 days, 0 = no effect, 100 = complete control
# Procedure, shortened: as §2
# [18] = test system: ragweed (common ragweed, Ambrosia artemisiifolia); experiment: as above; settings: 10 days, 0 = no effect, 100 = complete control
# Procedure, shortened: as §2
# [19] = test system: green foxtail (Setaria viridis); experiment: as above; settings: 10 days, 0 = no effect, 100 = complete control
# Procedure, shortened: as §2
# soybean (Glycine max) [20] = experiment: as above; settings: 10 days, 0 = no effect, 100 = complete control
# Procedure, shortened: as §2
# [21] = test system: blackgrass (Alopecurus myosuroides); experiment: as above; settings: 10 days, 0 = no effect, 100 = complete control
# Procedure, shortened: as §2
# [22] = test system: barnyardgrass (Echinochloa crus-galli); experiment: as above; settings: 10 days, 0 = no effect, 100 = complete control
# Procedure, shortened: as §2
# kochia (Bassia scoparia) [23] = experiment: as above; settings: 10 days, 0 = no effect, 100 = complete control
# Procedure, shortened: as §2
# [24] = test system: ryegrass, Italian (italian ryegrass, Lolium multiflorum); experiment: as above; settings: 10 days, 0 = no effect, 100 = complete control
# Procedure, shortened: as §2
# [25] = test system: palmer (palmer amaranth, palmer pigweed, Amaranthus palmeri); experiment: as above; settings: 10 days, 0 = no effect, 100 = complete control
# Procedure, shortened: as §2
# corn (Zea mays) [26] = experiment: as above; settings: 10 days, 0 = no effect, 100 = complete control
# Procedure, shortened: as §2
# [27] = test system: oat, wild (wild oat, Avena fatua); experiment: as above; settings: 10 days, 0 = no effect, 100 = complete control
# Procedure, shortened: as §2
compound,measurement,setting,value
CSCCOC(=O)C1C=CC(NC(=O)C2(C)CN(c3cc(Cl)cc(Cl)c3)C(=O)O2)C1 (stereo not shown) [Compound 45],"Plant response rating, Ducksalad (0 to 100 scale, 0 is no effect and 100 is complete control)",[1],100
same,"Plant response rating, Sedge, Umbrella (0 to 100 scale, 0 is no effect and 100 is complete control)",[2],100
same,"Plant response rating, Barnyardgrass (0 to 100 scale, 0 is no effect and 100 is complete control)",[3],75
same,"Plant response rating, Rice (0 to 100 scale, 0 is no effect and 100 is complete control)",rice (Oryza sativa),15
same,Wheat plant response rating (0 to 100 scale),[4]; 125 g ai/ha,90
same,Wheat plant response rating (0 to 100 scale),[4]; 500 g ai/ha,90
same,Ragweed plant response rating (0 to 100 scale),[5]; 125 g ai/ha,70
same,Ragweed plant response rating (0 to 100 scale),[5]; 500 g ai/ha,80
same,"Foxtail, Green plant response rating (0 to 100 scale)",[6]; 125 g ai/ha,80
same,"Foxtail, Green plant response rating (0 to 100 scale)",[6]; 500 g ai/ha,90
same,Galium plant response rating (0 to 100 scale),[7]; 125 g ai/ha,70
same,Galium plant response rating (0 to 100 scale),[7]; 500 g ai/ha,70
same,Soybean plant response rating (0 to 100 scale),soybean (Glycine max) [8]; 125 g ai/ha,90
same,Soybean plant response rating (0 to 100 scale),soybean (Glycine max) [8]; 500 g ai/ha,90
same,Horseweed plant response rating (0 to 100 scale),[9]; 125 g ai/ha,80
same,Horseweed plant response rating (0 to 100 scale),[9]; 500 g ai/ha,80
same,Blackgrass plant response rating (0 to 100 scale),[10]; 125 g ai/ha,100
same,Blackgrass plant response rating (0 to 100 scale),[10]; 500 g ai/ha,100
same,Barnyardgrass plant response rating (0 to 100 scale),[11]; 125 g ai/ha,100
same,Barnyardgrass plant response rating (0 to 100 scale),[11]; 500 g ai/ha,100
same,Kochia plant response rating (0 to 100 scale),kochia (Bassia scoparia) [12]; 125 g ai/ha,80
same,Kochia plant response rating (0 to 100 scale),kochia (Bassia scoparia) [12]; 500 g ai/ha,80
same,"Ryegrass, Italian plant response rating (0 to 100 scale)",[13]; 125 g ai/ha,80
same,"Ryegrass, Italian plant response rating (0 to 100 scale)",[13]; 500 g ai/ha,80
same,"Amaranth, Palmer / Pigweed, Palmer plant response rating (0 to 100 scale)",[14]; 125 g ai/ha,100
same,"Amaranth, Palmer / Pigweed, Palmer plant response rating (0 to 100 scale)",[14]; 500 g ai/ha,100
same,Corn plant response rating (0 to 100 scale),corn (Zea mays) [15]; 125 g ai/ha,100
same,Corn plant response rating (0 to 100 scale),corn (Zea mays) [15]; 500 g ai/ha,100
same,"Oat, Wild plant response rating (0 to 100 scale)",[16]; 125 g ai/ha,90
same,"Oat, Wild plant response rating (0 to 100 scale)",[16]; 500 g ai/ha,90
same,Wheat plant response rating (0 to 100 scale),[17]; 125 g ai/ha,90
same,Wheat plant response rating (0 to 100 scale),[17]; 500 g ai/ha,90
same,Ragweed plant response rating (0 to 100 scale),[18]; 125 g ai/ha,20
same,Ragweed plant response rating (0 to 100 scale),[18]; 500 g ai/ha,70
same,"Foxtail, Green plant response rating (0 to 100 scale)",[19]; 125 g ai/ha,90
same,"Foxtail, Green plant response rating (0 to 100 scale)",[19]; 500 g ai/ha,100
same,Soybean plant response rating (0 to 100 scale),soybean (Glycine max) [20]; 125 g ai/ha,30
same,Soybean plant response rating (0 to 100 scale),soybean (Glycine max) [20]; 500 g ai/ha,60
same,Blackgrass plant response rating (0 to 100 scale),[21]; 125 g ai/ha,90
same,Blackgrass plant response rating (0 to 100 scale),[21]; 500 g ai/ha,90
same,Barnyardgrass plant response rating (0 to 100 scale),[22]; 125 g ai/ha,100
same,Barnyardgrass plant response rating (0 to 100 scale),[22]; 500 g ai/ha,100
same,Kochia plant response rating (0 to 100 scale),kochia (Bassia scoparia) [23]; 125 g ai/ha,20
same,Kochia plant response rating (0 to 100 scale),kochia (Bassia scoparia) [23]; 500 g ai/ha,100
same,"Ryegrass, Italian plant response rating (0 to 100 scale)",[24]; 125 g ai/ha,90
same,"Ryegrass, Italian plant response rating (0 to 100 scale)",[24]; 500 g ai/ha,90
same,"Amaranth, Palmer plant response rating (0 to 100 scale)",[25]; 125 g ai/ha,100
same,"Amaranth, Palmer plant response rating (0 to 100 scale)",[25]; 500 g ai/ha,100
same,Corn plant response rating (0 to 100 scale),corn (Zea mays) [26]; 125 g ai/ha,20
same,Corn plant response rating (0 to 100 scale),corn (Zea mays) [26]; 500 g ai/ha,60
same,"Oat, Wild plant response rating (0 to 100 scale)",[27]; 125 g ai/ha,80
same,"Oat, Wild plant response rating (0 to 100 scale)",[27]; 500 g ai/ha,90
